In patent US9580426B2, “Compounds that expand hematopoietic stem cells” (Novartis AG, priority 2008, dated 2017):

How the values were obtained:
murine HSC = test: Activity on murine HSC; type: cell-based
AHR = target: T1, AHR (Rattus norvegicus, UniProt P41738); test: Dioxin induced AHR dependent transcription, rat cells; type: cell-based
T1 construct: had no activity on rat cells; endogenous in cells; host or cells: unnamed rat cells
T1 sequence (P41738 10-853): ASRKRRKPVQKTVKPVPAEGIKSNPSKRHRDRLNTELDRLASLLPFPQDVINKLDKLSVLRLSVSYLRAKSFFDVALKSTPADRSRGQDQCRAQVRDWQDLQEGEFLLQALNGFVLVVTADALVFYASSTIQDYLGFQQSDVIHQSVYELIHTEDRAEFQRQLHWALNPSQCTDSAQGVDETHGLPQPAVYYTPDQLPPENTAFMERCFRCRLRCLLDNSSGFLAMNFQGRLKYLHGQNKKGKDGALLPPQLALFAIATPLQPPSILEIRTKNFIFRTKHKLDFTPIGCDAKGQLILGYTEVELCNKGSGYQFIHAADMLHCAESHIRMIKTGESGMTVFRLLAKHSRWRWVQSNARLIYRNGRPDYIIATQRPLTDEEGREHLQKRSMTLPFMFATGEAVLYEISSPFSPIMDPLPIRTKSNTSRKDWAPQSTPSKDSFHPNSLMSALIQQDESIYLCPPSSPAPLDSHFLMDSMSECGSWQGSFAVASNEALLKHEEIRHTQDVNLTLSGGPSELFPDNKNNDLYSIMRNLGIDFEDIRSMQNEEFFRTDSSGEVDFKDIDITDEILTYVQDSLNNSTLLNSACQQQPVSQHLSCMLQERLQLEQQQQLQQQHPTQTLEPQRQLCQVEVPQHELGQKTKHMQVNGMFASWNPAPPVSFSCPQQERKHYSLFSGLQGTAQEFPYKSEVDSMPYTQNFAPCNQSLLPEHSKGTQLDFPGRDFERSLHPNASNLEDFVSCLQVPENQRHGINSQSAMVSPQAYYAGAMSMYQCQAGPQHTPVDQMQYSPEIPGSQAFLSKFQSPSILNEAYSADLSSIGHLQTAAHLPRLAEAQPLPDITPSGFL
Procedure: Further, the ability of Example 1 to block 2,3,7,8-tetrachlorodibenzo-p-dioxin (TCDD, dioxin)-mediated CYP1B1 mRNA expression by qPCR in mPB-derived CD34^+ cells was determined. Treatment with TCDD (3 nM) caused a 4.5-fold increase in the level of CYP1B1 mRNA compared with the vehicle control (0.01% toluene). […] To determine the effects of Example 1 in AHR transcription the ability of Example 1 to inhibit a dioxin-induced AHR dependent luciferase reporter gene assay was tested.

CB CD34+ cells = test: Determination of CD34+ cell subsets by FACS; type: cell-based, human
Procedure: Surface Antigen Analysis: The cells are washed with staining media (Hanks balanced salt solution containing FBS (2%) and EDTA (2 mM)) and stained (at 4° C. for 30 minutes) with indicated primary conjugated antibodies. The cells are washed in the previously described buffer and analyzed using a BD LSR II flow cytometer (Becton Dickinson, San Jose, Calif.). The cells are passed at a rate of up to 1000 cells/second using 488-nm argon and 633-nm HeNe laser beams as the light source for excitation. Emission of 10^4 cells is measured using logarithmic amplification and analyzed using FlowJo software (TreeStar Inc. Ashland, Oreg.). Cells stained with primary conjugated isotype control antibodies are used to determine background fluorescence.
Determination of CD34^+ cell subsets: The percentages of CD34^+ cell subsets are determined from aliquots of the cell culture. Cells were stained with APC anti-Thy1.1, PerCP anti-CD34, PECy7 anti CD45RA, FITC anti CD38, and PE anti-CD133 for determination of CD34^+Thy1.1^+, CD34^+CD45RA^−, CD34^+CD38^−, CD133^+CD38^− and CD34^+CD133^+ cells. Antibodies to CD34, CD38, Thy1.1 and CD45RA were purchased from Becton Dickinson and antibodies to CD133 were purchased Miltenyi Biotec. FACS analysis results of these subsets are given as percentage of the total population. The absolute number of each population of cells in the culture is calculated from the total number of cells multiplied by the percentage of each population. Starting with CB CD34+ cell, after five weeks the total cell number in the cultures increased on average greater than 2-fold in the 4-(2-(2-(benzo[b]thiophen-3-yl)-9-isopropyl-9H-purin-6-ylamino)ethyl)phenol (compound 1, table 1; example 1) 1 micromolar treated cells compared to control cultures. More importantly, >50% of 4-(2-(2-(benzo[b]thiophen-3-yl)-9-isopropyl-9H-purin-6-ylamino)ethyl)phenol (compound 1, table 1; example 1) cultured cells were CD34^+ compared to <10% of vehicle cultured cells resulting in a greater than 10-fold expansion of CD34^+ cells compared to control and a greater than 10.000-fold expansion compared to input cells. In addition, the presence of 1 micromolar 4-(2-(2-(benzo[b]thiophen-3-yl)-9-isopropyl-9H-purin-6-ylamino)ethyl)phenol (compound 1, table 1; example 1) increased both the percentage and total numbers of the CD34^+ subpopulations, CD34^+CD45RA^−, CD34^+CD38^−, CD133^+CD38^−, and CD34^+CD133^+ resulting in a net expansion of greater than 30-fold for each subset.

mPB-derived CD34+ cells = test: Genome-wide transcriptional profiling; type: cell-based, human; details: 24 hours
Text: The two genes that were the most highly repressed by treatment with Example 1 (cytochrome P450 1B1 [CYP1B1] and the aryl hydrocarbon receptor repressor [AHRR]) are transcriptionally regulated by the aryl hydrocarbon receptor (AHR). Therefore, compounds of the invention could be acting as an antagonist of AHR signaling.

mPB-derived CD34+ cell = test: 7 day culture with AHR antagonists, expansion of CD34+ cells; type: cell-based, human; details: 0.75 μM; 7 days
Procedure: To further explore the role of AHR signaling in HSCs two other AHR antagonists (alpha-naphthoflavone and CH-223191) were tested. Both compounds lead to dose dependent increases in the number of CD34^+ cells when cultured with mPB-derived CD34^+ cell for 7 days: inclusion of 1 μM CH223191 afforded a 2.2-fold expansion of CD34^+ cells; 0.75 μM α-naphthoflavone afforded a 1.9-fold expansion of CD34^+ cells while 0.75 μM Example 1 afforded a 3.4-fold expansion of total CD34^+ cells. […] Forty-eight hours following transduction, CD34+GFP^+ cells were purified by cell sorting and the levels of AHR were determined by qPCR. Both AHR targeting shRNAs led to decreases in AHR expression following transduction (81% with sh111 and 51% with sh242). These decreases were not seen in cells lacking GFP or in cells transduced with control virus.

CC(C)n1cnc2c(NCCc3ccc(O)cc3)nc(-c3csc4ccccc34)nc21 [Example 1, 4-(2-(2-(benzo[b]thiophen-3-yl)-9-isopropyl-9H-purin-6-ylamino)ethyl)phenol]
activity on murine HSC (murine HSC): lack of activity
agonist activity (AHR dependent transcription) (AHR): only weak agonist activity
inhibition of dioxin induced transcription (AHR): no activity
net expansion of each subset CD34+CD45RA-, CD34+CD38-, CD133+CD38-, CD34+CD133+ (CB CD34+ cells; 1 micromolar): greater than 30 fold
increase of total cell number compared to control cultures (CB CD34+ cells; 1 micromolar, after five weeks): greater than 2 fold
expansion of CD34+ cells compared to control (CB CD34+ cells; five weeks): greater than 10 fold
expansion of CD34+ cells compared to input cells (CB CD34+ cells; five weeks): greater than 10.000 fold
percentage of cultured cells that were CD34+ (CB CD34+ cells; five weeks, vehicle <10%): > 50%
down-regulation of 5 genes (most repressed: CYP1B1, AHRR) (mPB-derived CD34+ cells; 1 μM): > 70%
up-regulation of 5 genes of >50,000 probe sets (mPB-derived CD34+ cells): greater than 3 fold
expansion of CD34+ cells (mPB-derived CD34+ cell): 3.4 fold
